From publication PMC8528049, “Expanding the scope of native chemical ligation – templated small molecule drug synthesis via benzanilide formation” (Chemical Science, 2021)
Where two headings read alike, the source gives them in different places.

Legend:
[1] = target: non-phosphorylated Abl1 kinase (Homo sapiens, UniProt P00519); test: KdELECT assay (DiscoverX), dissociation constants with Abl1 kinase
Bcr–Abl = details: cited from earlier work
K562 cells = test: alamarBlue cell viability assay on K562 cells; type: cell-based; details: Homo sapiens
Procedure: Cell culture and cell viability assay
K562 cells were cultured in DMEM supplemented with 10% FCS, 4 mM glutamine, 100 U · mL-1 […]
assays , c e l ls were seeded on a 96-well plate (10000 cells/well), followed by the immediate addition of the test compounds (100 µL, serial dilutions in medium). Untreated cells were used as controls and complete medium without cells was used to determine the background signal o f the assay . Afte r […]
1:10, v:v, in PBS) was added to each well. […]
reader from PerkinElmer (Waltham, USA). IC 50 values were calculated from triplicates w it h a 1 3 -po i n t dose-response curve using the Hill equation. […]

[2] = Dissociation constant (Kd) of complexes formed with Abl1 kinase, non-phosphorylated Abl1 kinase, calculated from quadruplicates, mean ± SD
[3] = Kd, Replicate 1, non-phosphorylated Abl1 kinase, single replicate 1, Hill equation
[4] = Kd, Replicate 2, non-phosphorylated Abl1 kinase, single replicate 2, Hill equation
[5] = Kd, Replicate 3, non-phosphorylated Abl1 kinase, single replicate 3, Hill equation
[6] = Kd, Replicate 4, non-phosphorylated Abl1 kinase, single replicate 4, Hill equation
[7] = 96 h, single replicate 1, read-out: IC50, Replicate 1
[8] = 96 h, single replicate 2, read-out: IC50, Replicate 2
[9] = 96 h, single replicate 3, read-out: IC50, Replicate 3
[10] = 96 h treatment, calculated from triplicates, read-out: IC50 on K562 cells, determined by alamarBlue assay

Sequence of non-phosphorylated Abl1 kinase (P00519 whole entry): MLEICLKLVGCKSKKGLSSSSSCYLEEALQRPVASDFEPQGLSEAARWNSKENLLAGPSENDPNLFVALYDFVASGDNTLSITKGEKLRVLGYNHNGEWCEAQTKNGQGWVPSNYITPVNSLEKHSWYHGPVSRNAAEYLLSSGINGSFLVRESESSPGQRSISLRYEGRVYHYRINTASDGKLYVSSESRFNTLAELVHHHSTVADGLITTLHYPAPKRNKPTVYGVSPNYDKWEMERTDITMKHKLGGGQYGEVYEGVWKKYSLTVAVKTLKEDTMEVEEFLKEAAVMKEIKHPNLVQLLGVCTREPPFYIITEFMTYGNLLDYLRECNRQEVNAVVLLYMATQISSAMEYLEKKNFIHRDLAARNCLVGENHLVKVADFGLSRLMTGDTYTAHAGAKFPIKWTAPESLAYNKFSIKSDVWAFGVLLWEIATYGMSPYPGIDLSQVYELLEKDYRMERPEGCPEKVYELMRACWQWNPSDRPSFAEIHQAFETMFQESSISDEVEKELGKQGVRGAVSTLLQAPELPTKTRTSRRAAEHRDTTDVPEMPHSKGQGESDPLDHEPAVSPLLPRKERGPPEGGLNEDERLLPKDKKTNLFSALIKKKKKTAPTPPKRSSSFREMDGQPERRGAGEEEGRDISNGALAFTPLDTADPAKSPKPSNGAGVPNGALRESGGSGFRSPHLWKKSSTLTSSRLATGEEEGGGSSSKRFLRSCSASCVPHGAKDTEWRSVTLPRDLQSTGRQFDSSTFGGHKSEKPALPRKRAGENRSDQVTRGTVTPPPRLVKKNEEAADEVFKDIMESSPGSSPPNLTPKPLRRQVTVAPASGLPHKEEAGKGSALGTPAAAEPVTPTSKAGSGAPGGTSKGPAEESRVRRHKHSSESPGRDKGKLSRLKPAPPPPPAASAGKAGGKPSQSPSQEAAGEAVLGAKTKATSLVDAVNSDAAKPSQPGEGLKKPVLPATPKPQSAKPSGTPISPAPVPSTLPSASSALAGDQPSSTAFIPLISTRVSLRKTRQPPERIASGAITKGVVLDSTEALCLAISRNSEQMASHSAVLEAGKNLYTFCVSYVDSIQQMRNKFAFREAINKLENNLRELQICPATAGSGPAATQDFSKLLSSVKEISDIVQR

Compound | Kd [1, 2] | Kd [1, 3] | Kd [1, 4] | Kd [1, 5] | Kd [1, 6] | IC50 (K562 cells; [7]) | IC50 (K562 cells; [8]) | IC50 (K562 cells; [9]) | IC50 (K562 cells; [10]) | IC50 for inhibition of kinases such as Bcr–Abl (Bcr–Abl)
Cc1ccc(C(=O)Nc2ccc(CN3CCN(C)CC3)c(C(F)(F)F)c2)cc1C#Cc1cnc2[nH]ncc2c1 [GZD824 (3), GZD824, reference compound] | 0.6 ± 0.3 nM | 1 nM | 0.7 nM | 0.3 nM | 0.4 nM |  |  |  |  | low nanomolar range
Cc1ccc(C(=O)Nc2cc(C(F)(F)F)c(CN3CCN(C)CC3)cc2S)cc1C#Cc1cnc2[nH]ncc2c1 [GZD824-SH (3a)] | 0.9 ± 0.4 nM | 1.2 nM | 1.4 nM | 0.5 nM | 0.5 nM |  |  |  |  | 
Cc1cn(-c2cc(C(F)(F)F)cc(NC(=O)c3ccc(C)c(Nc4nccc(-c5cccnc5)n4)c3)c2S)cn1 [Nilotinib-SH (1a)] | 881 ± 151 nM | 1140 nM | 793 nM | 791 nM | 797 nM |  |  |  |  | 
Cc1cn(-c2cc(NC(=O)c3ccc(C)c(Nc4nccc(-c5cccnc5)n4)c3)cc(C(F)(F)F)c2)cn1 [Nilotinib (1), Nilotinib] |  |  |  |  |  |  |  |  |  | low nanomolar range

Second part, led by results:

Kd [1, 2] | Kd [1, 3] | Kd [1, 4] | Kd [1, 5] | Kd [1, 6] | IC50 (K562 cells; [7]) | IC50 (K562 cells; [8]) | IC50 (K562 cells; [9]) | IC50 (K562 cells; [10]) | Compound | IC50 for inhibition of kinases such as Bcr–Abl (Bcr–Abl)
 |  |  |  |  | 3.5 nM | 3.6 nM | 3.1 nM | 3.4 ± 0.2 nM | Cc1ccc(C(=O)Nc2ccc(CN3CCN(C)CC3)c(C(F)(F)F)c2)cc1C#Cc1cnc2cccnn12 [Ponatinib (2), Ponatinib, reference compound] | 
0.6 nM | 0.5 nM | 0.7 nM | 0.6 nM | 0.6 nM | 392 nM | 343 nM | 326 nM | 354 ± 28 nM | Cc1ccc(C(=O)Nc2cc(C(F)(F)F)c(CN3CCN(C)CC3)cc2S)cc1C#Cc1cnc2cccnn12 [Ponatinib-SH (2a)] | 
8.4 ± 2.3 nM | 11.6 nM | 9.5 nM | 6.4 nM | 6.2 nM | 118 nM | 115 nM | 126 nM | 120 ± 5 nM | Cc1ccc(-c2nc3cc(C(F)(F)F)c(CN4CCN(C)CC4)cc3s2)cc1C#Cc1cnc2cccnn12 [Ponatinib-BT (2b)] | 
